Measurements: patent US9486434B2, “Method for delivery and use of isothiocyanates for prophylaxis and/or therapy of bladder cancer” (Health Research Inc., priority 2010, dated 2016)

Legend:
[1] = system: caspase-3, α-tubulin, β-tubulin, VEGF in AY-27 cells; assay: Western blotting in cultured AY-27 cells; type: cell-based, rat; settings: NAC-AITC 7.5 and 15 μM, 24 h
Experimental: FIG. 8. Inhibition of bladder cancer development by MSP-1. Female F344 rats were inoculated with AY-27 cells intravesically via a urethra catheter to initiate development of orthotopic bladder cancer. Oral administration of MSP-1 of vehicle (water) once daily was started 1 day after cancer cell inoculation and ended 3 weeks later. The number of rats per group varied from 11-29. A. Initial (□) and final (▪) body weights. B. Tumor weight was calculated by subtracting the average normal bladder weight from tumor-bearing bladder weight. *P<0.05. Each value in A and B is mean±SEM. C. Percentage of bladder where the tumor invaded the muscle tissue. D. The effects of MSP-1 on selected anticancer targets in UM-UC-3 cells (in vitro), AY-27 cells (in vitro) and AY-27 tumors (in vivo). The cells were treated with MSP-1 at the sinigrin concentrations of 13 and 26 microM for 24 h. The bladder tumors were removed from rats treated with MSP-1 at the sinigrin doses of 9 or 90 micromols/kg once daily for 3 weeks, started 1 day after cancer cell inoculation. Cell lysates and tumor homogenates were analyzed by Western blotting, using GAPDH as a loading control.
FIG. 13. Molecular targets of NAC-AITC in bladder cancer. AY-27 cells in culture were treated with NAC-AITC for 24 h. The results are representative of at least two experiments. The bladder tumors were removed from rats, which were treated with NAC-AITC orally at 10 μmol/kg once daily for 3 weeks, starting 1 day after intravesicular inoculation of AY-27 cells. The results are representative of three to five tumors assayed in each group. Cell lysates and tumor tissue homogenates were analyzed by western blot analysis, using GAPDH as a loading control.
Western blot analysis. Cells after harvest were washed with ice-cold phosphate-buffered saline, suspended in radioimmunoprecipitation assay lysis buffer supplemented with a protease inhibitor cocktail (Sigma-Aldrich) and further lysed by sonication. […]

UM-UC-3 cells = assay: Wright-Giemsa staining for mitotic figures, UM-UC-3 cells; type: cell-based, human; settings: 24 h, compared with G2/M by flow cytometry
Experimental: FIG. 4. Effect of AITC on mitosis, tubulin expression and apoptosis in human bladder cancer UM-UC-3 cells. Cells were treated with vehicle or AITC for 24 h (each numerical value is mean±SD). A. Flow cytometry analysis for cell cycle arrest. B. Wright-Giemsa staining for counting mitotic figures. Arrows point to cells in mitosis or mitotic catastrophe. C. Immunofluorescent staining of microtubules (green color) and DNA staining with DAPI (blue color). D. Western blotting of tubulins (GAPDH as a loading control). E. Loss of mitochondrial transmembrane potential (Δψm) measured by flow cytometry. F. Western blotting of caspase-9 and caspase-3 (GAPDH as a loading control). G. Apoptotic cells (TUNEL cells) measured by flow cytometry. Cells in F and G were co-treated with or without 20 microM Z-LEHD-FMK (a caspase-9 inhibitor).

[2] = system: normal human bladder epithelial cells (HUC); assay: Cell cycle arrest and apoptosis in HUC; type: cell-based; settings: 7.5 and/or 15 microM
Experimental: FIG. 3. The effect of AITC on cell survival and proliferation. AITC was evaluated at the indicated concentrations in human bladder cancer UM-UC-3 cells, rat bladder cancer AY-27 cells, and normal human bladder epithelial cells (HUC). A. Cell growth inhibition, measured by MTT assay, 72-h AITC treatment. IC50 was calculated from nonlinear regression curve fit. B. Cell cycle arrest (□, subG1; ? , G1; ? , 5; ▪, G2/M), measured by flow cytometry, 24 h AITC treatment. C. Apoptosis induction, measured by an ELISA assay, 24 h AITC treatment. Mean±SE, n=3-6), *P<0.05.

[3] = female, F344, rat, in vivo
Experimental: FIG. 7. Pharmacokinetics of AITC in F344 rats. A & B. Five groups of 4-6 female rats were administered a single oral dose of AITC at 10 or 300 micromols/kg and then kept in metabolism cages for urine collection (1 rat/cage) for 1.5, 3, 6, 12 and 24 h. At the end of each time period, blood was drawn from one group of rats, from which plasma was prepared. C. Rats bearing orthotopic bladder tumors, 3 weeks after AY-27 cell inoculation, were administered a single oral dose of AITC at 300 micromols/kg. Orthotopic tumors were removed from the rats at 0 h (T1), 1.5 h (T2), and 6 h (T3) after AITC dosing. Concentrations of AITC equivalent in plasma, urine and tumor tissue homogenates were determined by the cyclocondensation assay developed in our lab. Each value is a mean±SE.
Rats were administered a single oral dose of AITC at 10 or 300 micromols/kg, and urine and blood were collected at several time intervals up to 24 h. Cyclocondensation assay was used for measurement of AITC equivalent in the samples [12]. Oral administration of AITC led to dose-dependent increase in the levels of AITC equivalent in both plasma and urine (FIGS. 7A & 7B). […]
AITC and NAC-AITC contents in the plasma and urine were determined using the high-performance liquid chromatography (HPLC)-based cyclocondensation assay, and are expressed as AITC equivalent or NAC-AITC equivalent. […]

Row | Structure (SMILES) | VEGF level [1] | caspase-3 cleavage/activation [1] | α-tubulin and β-tubulin levels [1] | arrest in mitosis (UM-UC-3 cells) | cell cycle arrest and apoptosis in HUC [2] | average 24-h urinary concentration as % of peak urinary concentration [3] | average 24-h urinary concentration relative to plasma concentration at 24 h [3]
1 | C=CCNC(=S)SC[C@H](NC(C)=O)C(=O)O [NAC-AITC, N-acetyl-S—(N-allylthiocarbamoyl)cysteine] | downregulation | dose-dependent cleavage/activation | downregulation |  |  |  | 
2 | C=CCN=C=S [AITC, allyl isothiocyanate] |  |  |  | arrested cells almost exclusively in mitosis | failed to cause cell cycle arrest and apoptosis | 11.6-45.2% | 4,911-14,501 fold higher
